Measurements as given in PubChem BioAssay AID328 (DTP/NCI, 2004).
“And” between values parts separate entries of the source, which are not always exact repeats. Identical values can stand only once. Toxic doses and inconclusive results are not listed. How the source made its calls: active means survival T/C of 150% or more; inactive means T/C below 125% in these data.

Tested on: BDF1 mice, P388 leukemia ip, median survival T/C
Experiment: NCI In Vivo Anticancer Drug Screen. Data for tumor model P388 Leukemia (intraperitoneal) in B6D2F1 (BDF1) mice
Conditions: endpoint: median survival time, higher = longer survival
Method in brief: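 In tumour-bearing mice, survival after compound treatment is set against the vehicle group and given as a quotient.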

[1] = dose: 100.0 mg/kg/injection, schedule: Q01DX009 (ip), vehicle: Klucel (hydroxypropylcellulose) (HPC)
[2] = dose: 100.0 mg/kg/injection, schedule: Q04DX003 (ip), vehicle: Klucel (hydroxypropylcellulose) (HPC)
[3] = dose: 200.0 mg/kg/injection, schedule: Q01DX009 (ip), vehicle: Klucel (hydroxypropylcellulose) (HPC)
[4] = dose: 200.0 mg/kg/injection, schedule: Q04DX003 (ip), vehicle: Klucel (hydroxypropylcellulose) (HPC)
[5] = dose: 400.0 mg/kg/injection, schedule: Q01DX009 (ip), vehicle: Klucel (hydroxypropylcellulose) (HPC)
[6] = dose: 400.0 mg/kg/injection, schedule: Q04DX003 (ip), vehicle: Klucel (hydroxypropylcellulose) (HPC)
[7] = dose: 12.5 mg/kg/injection, schedule: Q01DX009 (ip), vehicle: saline with Tween-80
[8] = dose: 100.0 mg/kg/injection, schedule: Q04DX003 (ip), vehicle: saline with Tween-80
[9] = dose: 200.0 mg/kg/injection, schedule: Q04DX003 (ip), vehicle: saline with Tween-80
[10] = dose: 400.0 mg/kg/injection, schedule: Q04DX003 (ip), vehicle: saline with Tween-80
[11] = dose: 100.0 mg/kg/injection, schedule: Q01DX009 (ip), vehicle: saline with Tween-80
[12] = dose: 400.0 mg/kg/injection, schedule: Q01DX009 (ip), vehicle: saline with Tween-80
[13] = dose: 25.0 mg/kg/injection, schedule: Q01DX009 (ip), vehicle: saline with Tween-80
[14] = dose: 50.0 mg/kg/injection, schedule: Q01DX009 (ip), vehicle: saline with Tween-80
[15] = dose: 200.0 mg/kg/injection, schedule: Q01DX009 (ip), vehicle: saline with Tween-80
[16] = dose: 25.0 mg/kg/injection, schedule: Q01DX009 (ip), vehicle: saline
[17] = dose: 50.0 mg/kg/injection, schedule: Q01DX009 (ip), vehicle: saline
[18] = dose: 50.0 mg/kg/injection, schedule: Q04DX003 (ip), vehicle: saline with Tween-80
[19] = dose: 50.0 mg/kg/injection, schedule: Q04DX003 (ip), vehicle: saline

Measured: T/C

COc1cccc2c1C(=O)c1c(O)c3c(c(O)c1C2=O)C[C@@](O)(/C(CO)=N/NC(=O)c1ccc(Cl)c(Cl)c1)C[C@@H]3OC1CC(N)C(O)C(C)O1 (stereo not given in full)
116 % of control and 217 % of control: dose: 3.12 mg/kg/injection, schedule: Q01DX009 (ip), vehicle: water
inactive: dose: 0.78 mg/kg/injection, schedule: Q01DX009 (ip), vehicle: water 94 % of control | dose: 6.25 mg/kg/injection, schedule: Q01DX009 (ip), vehicle: water 121 % of control

CCCCC(=O)c1ccc(Cl)cc1
inactive: [1] 105 % of control | [2] 104 % of control | [3] 110 % of control | [4] 100 % of control | [5] 115 % of control | [6] 100 % of control

O=C1C=CC(=O)c2cc(Cl)c(Cl)cc21
inactive: dose: 3.13 mg/kg/injection, schedule: Q01DX009 (ip), vehicle: saline with Tween-80 118 % of control | [7] 86 % of control

CC1(C)CCC2(CC1)CC(=O)OC2=O
inactive: [8] 95 % of control | [9] 87 % of control | [10] 104 % of control

CC(C)C[CH2][Pb]([Cl])([CH2]CC(C)C)[CH2]CC(C)C
inactive: dose: 0.12 mg/kg/injection, schedule: Q01DX009 (ip), vehicle: Klucel (hydroxypropylcellulose) (HPC) 104 % of control | dose: 0.25 mg/kg/injection, schedule: Q01DX009 (ip), vehicle: Klucel (hydroxypropylcellulose) (HPC) 106 % of control | dose: 0.5 mg/kg/injection, schedule: Q01DX009 (ip), vehicle: Klucel (hydroxypropylcellulose) (HPC) 109 % of control | dose: 1.0 mg/kg/injection, schedule: Q01DX009 (ip), vehicle: Klucel (hydroxypropylcellulose) (HPC) 120 % of control

N#Cc1cnn(CCO)c1N
inactive: dose: 100.0 mg/kg/injection, schedule: Q01DX009 (ip), vehicle: water 90 % of control | dose: 100.0 mg/kg/injection, schedule: Q04DX003 (ip), vehicle: water 100 % of control | dose: 200.0 mg/kg/injection, schedule: Q01DX009 (ip), vehicle: water 113 % of control | dose: 200.0 mg/kg/injection, schedule: Q04DX003 (ip), vehicle: water 100 % of control | dose: 400.0 mg/kg/injection, schedule: Q01DX009 (ip), vehicle: water 109 % of control | dose: 400.0 mg/kg/injection, schedule: Q04DX003 (ip), vehicle: water 104 % of control

C[C@]12CC[C@@H]3c4ccc(OC(=O)Cc5ccc(N(CCCl)CCCl)cc5)cc4CC[C@H]3[C@@H]1CC[C@@H]2OC(=O)Cc1ccc(N(CCCl)CCCl)cc1
active: [12] 200 % of control | dose: 512.0 mg/kg/injection, schedule: Q01DX009 (ip), vehicle: Klucel (hydroxypropylcellulose) (HPC) 195 % of control
inactive: dose: 64.0 mg/kg/injection, schedule: Q01DX009 (ip), vehicle: Klucel (hydroxypropylcellulose) (HPC) 95 % of control and 105 % of control | [11] 118 % of control | dose: 128.0 mg/kg/injection, schedule: Q01DX009 (ip), vehicle: Klucel (hydroxypropylcellulose) (HPC) 98 % of control and 123 % of control | dose: 256.0 mg/kg/injection, schedule: Q01DX009 (ip), vehicle: Klucel (hydroxypropylcellulose) (HPC) 111 % of control | dose: 264.0 mg/kg/injection, schedule: Q04DX003 (ip), vehicle: saline with Tween-80 108 % of control | [10] 112 % of control

O=C1c2cscc2C(=O)c2c(Cl)sc(Cl)c21
inactive: dose: 6.25 mg/kg/injection, schedule: Q01DX009 (ip), vehicle: saline with Tween-80 101 % of control | [7] 108 % of control | [13] 101 % of control

O=C(NNC(=O)C12CC3CC(CC(C3)C1)C2)c1ccncc1
inactive: [14] 96 % of control | [11] 101 % of control | [15] 92 % of control

CC(=O)Nc1ccc(N2CCN=N2)cc1
inactive: dose: 12.5 mg/kg/injection, schedule: Q01DX009 (ip), vehicle: saline 110 % of control | [16] 95 % of control | [17] 105 % of control | dose: 75.0 mg/kg/injection, schedule: Q01DX009 (ip), vehicle: Klucel (hydroxypropylcellulose) (HPC) 104 % of control

C(#CCN1CCCC1)CCCN1CCCC1
inactive: [13] 111 % of control | [14] 92 % of control | [18] 91 % of control | [11] 92 % of control | [8] 91 % of control

Clc1ccc(CN2CCCN(Cc3ccc(Cl)c(Cl)c3)S2)cc1Cl
inactive: [14] 101 % of control | [11] 97 % of control | [15] 90 % of control

CC(=O)CC(=O)NC(C)CCc1ccccc1 (stereo not given)
inactive: [8] 104 % of control | [9] 109 % of control | [10] 109 % of control

C[S+](C)CCCNC(=O)c1csc(-c2csc(CCNC(=O)c3ccccc3)n2)n1
inactive: dose: 8.0 mg/kg/injection, schedule: Q01DX009 (ip), vehicle: saline 90 % of control | dose: 16.0 mg/kg/injection, schedule: Q01DX009 (ip), vehicle: saline 100 % of control | dose: 32.0 mg/kg/injection, schedule: Q01DX009 (ip), vehicle: saline 95 % of control

CCCCOC1OC[N+](C)(C)CC1(C)C (stereo not given)
inactive: dose: 25.0 mg/kg/injection, schedule: Q04DX003 (ip), vehicle: saline with Tween-80 102 % of control | [18] 105 % of control | [8] 100 % of control and 105 % of control

C=CCNCCN1CCN(CCCN2c3ccccc3Sc3ccc(C(F)(F)F)cc32)CC1
inactive: dose: 6.25 mg/kg/injection, schedule: Q04DX003 (ip), vehicle: saline 108 % of control and 110 % of control | dose: 12.5 mg/kg/injection, schedule: Q04DX003 (ip), vehicle: saline 87 % of control and 110 % of control | dose: 25.0 mg/kg/injection, schedule: Q04DX003 (ip), vehicle: saline 100 % of control and 118 % of control | [19] 116 % of control

O=c1cc(-c2ccccc2)nc2ccccn12
inactive: dose: 12.5 mg/kg/injection, schedule: Q01DX001 (ip), vehicle: saline with Tween-80 109 % of control | dose: 25.0 mg/kg/injection, schedule: Q01DX001 (ip), vehicle: saline with Tween-80 104 % of control | dose: 50.0 mg/kg/injection, schedule: Q01DX001 (ip), vehicle: saline with Tween-80 123 % of control

OC(Cc1ccccc1)(c1ccccc1)c1cccc2ccccc12 (stereo not given)
inactive: [1] 100 % of control | [3] 100 % of control | [5] 104 % of control

c1ccc(-c2nnc3oc(-c4cccs4)nn23)cc1
inactive: [11] 86 % of control | [15] 90 % of control | [12] 90 % of control

ClCCOC(OCCCl)OCCCl
inactive: [13] 113 % of control | [14] 109 % of control | [8] 95 % of control

Cc1ccc(S(=O)(=O)N/N=C2/C(=N/NS(=O)(=O)c3ccc(C)cc3)C3CCC2C3)cc1
inactive: dose: 50.0 mg/kg/injection, schedule: Q01DX009 (ip), vehicle: other 105 % of control | dose: 100.0 mg/kg/injection, schedule: Q01DX009 (ip), vehicle: other 96 % of control | dose: 200.0 mg/kg/injection, schedule: Q01DX009 (ip), vehicle: other 95 % of control

N=C1CCCC1C(=S)SC(CC(N)=O)C(=O)O (stereo not given)
inactive: [14] 108 % of control | [11] 112 % of control | [15] 112 % of control

O=c1nc(Oc2ccccc2)nc2cnccn12
inactive: [14] 88 % of control | [11] 88 % of control

C[C@@H]1C[C@@]2(C)[C@@H](CC[C@@H]3[C@@H]2CC[C@]2(C)[C@@H](OC4CCCCO4)CC[C@@H]32)CC1=O (stereo not given in full)
inactive: dose: 25.0 mg/kg/injection, schedule: Q01DX009 (ip), vehicle: Klucel (hydroxypropylcellulose) (HPC) 88 % of control | dose: 50.0 mg/kg/injection, schedule: Q01DX009 (ip), vehicle: Klucel (hydroxypropylcellulose) (HPC) 92 % of control | [1] 88 % of control and 100 % of control | [2] 86 % of control and 91 % of control | [3] 87 % of control and 100 % of control | [4] 87 % of control and 95 % of control | [5] 105 % of control | [6] 90 % of control and 91 % of control

O=[N+]([O-])CC(O)c1ccc2ccccc2n1 (stereo not given)
inactive: [16] 86 % of control | [17] 86 % of control | [19] 109 % of control | dose: 100.0 mg/kg/injection, schedule: Q01DX009 (ip), vehicle: saline 89 % of control | dose: 100.0 mg/kg/injection, schedule: Q04DX003 (ip), vehicle: saline 95 % of control | dose: 200.0 mg/kg/injection, schedule: Q04DX003 (ip), vehicle: saline 90 % of control

N#CC(C#N)C1c2ccccc2C([N+](=O)[O-])c2ccccc21 (stereo not given)
inactive: [11] 112 % of control | [15] 116 % of control | [12] 112 % of control
